Results published in US20240210412A1, “SULFONYL-TRIAZOLE COMPOUNDS USEFUL AS LIGANDS AND INHIBITORS OF PROSTAGLANDIN REDUCTASE 2” (University of Virginia Patent Foundation, priority 2021, published 2024).

Biological target: T1, Q14157 (Homo sapiens, UniProt Q14157)
T1 construct: performing SuTEx compound screening directly in cells; endogenous in cells; host or cells: DM93 cells (SILAC), soluble fraction
T1 sequence (Q14157 1-1087): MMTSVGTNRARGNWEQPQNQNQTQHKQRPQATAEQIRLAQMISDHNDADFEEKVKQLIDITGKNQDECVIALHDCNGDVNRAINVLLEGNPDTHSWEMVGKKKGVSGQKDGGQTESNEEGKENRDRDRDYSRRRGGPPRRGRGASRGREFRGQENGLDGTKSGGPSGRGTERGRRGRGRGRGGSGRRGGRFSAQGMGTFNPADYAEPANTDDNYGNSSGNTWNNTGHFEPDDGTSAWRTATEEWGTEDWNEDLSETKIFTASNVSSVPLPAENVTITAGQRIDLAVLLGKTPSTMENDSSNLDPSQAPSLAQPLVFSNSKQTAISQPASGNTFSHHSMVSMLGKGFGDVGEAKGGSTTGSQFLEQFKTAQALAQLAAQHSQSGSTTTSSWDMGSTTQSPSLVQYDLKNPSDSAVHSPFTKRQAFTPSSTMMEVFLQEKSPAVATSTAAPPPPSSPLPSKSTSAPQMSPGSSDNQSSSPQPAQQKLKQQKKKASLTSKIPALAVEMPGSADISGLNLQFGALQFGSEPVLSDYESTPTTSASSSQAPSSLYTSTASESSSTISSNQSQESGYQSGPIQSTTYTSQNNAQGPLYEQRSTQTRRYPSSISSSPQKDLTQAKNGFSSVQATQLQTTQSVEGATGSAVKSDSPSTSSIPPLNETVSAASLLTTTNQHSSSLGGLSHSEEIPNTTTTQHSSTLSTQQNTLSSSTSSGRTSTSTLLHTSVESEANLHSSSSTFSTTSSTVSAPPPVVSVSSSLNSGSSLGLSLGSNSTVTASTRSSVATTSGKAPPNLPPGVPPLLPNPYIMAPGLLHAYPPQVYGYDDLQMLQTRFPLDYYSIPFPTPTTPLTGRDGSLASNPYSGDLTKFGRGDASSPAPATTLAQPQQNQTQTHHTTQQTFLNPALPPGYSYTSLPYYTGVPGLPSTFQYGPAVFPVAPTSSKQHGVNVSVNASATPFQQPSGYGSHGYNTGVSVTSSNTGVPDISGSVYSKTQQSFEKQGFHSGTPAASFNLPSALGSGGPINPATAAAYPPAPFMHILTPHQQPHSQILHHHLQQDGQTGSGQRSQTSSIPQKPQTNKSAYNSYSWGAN
Experiment: SILAC LC-MS ABPP
Assay type: cell-based
Settings: 25 μM 2 h, live DM93 cells
Procedure: Cells were grown to 90-95% confluence before being washed once with warm, sterile DPBS (1×, 5 mL), followed by addition of 10 mL of serum-free media (supplemented with 1% L-glutamine) containing either DMSO or SuTEx fragment (in DMSO) was added. Light cells were treated with DMSO vehicle while the heavy cells were treated with DMSO or SuTEx fragment (in DMSO) and incubated for 2 hrs. After 2 hrs, the cells were treated with SuTEx alkyne probe (HHS475, 10 μL of 1000× DMSO stock) and incubated for an additional 2 hrs. The media was aspirated and cells washed with cold PBS (5 mL) and harvested. Cells were spun at 500×g for 5 min at 4° C. followed by removal of supernatant. Pellets were resuspended in 1 mL of cold DPBS and spun at 1,400×g for 3 min at 4° C. followed by removal of supernatant. The cells were lysed in PBS by sonication and fractionated (100,000×g, 45 min, 4° C.).The light and heavy soluble fractions were diluted to 2.3 mg/mL in PBS and 432 μL were used for analysis (1 mg total protein). The probe-modified proteomes were conjugated to desthiobiotin-PEG3-azide (10 μl of 10 mM stock in DMSO; 200 μM final concentration) using TCEP (10 μl of fresh 50 mM stock in water, 1 mM final concentration), TBTA ligand (33 μl of a 1.7 mM 4:1 t-butanol/DMSO stock, 100 μM final concentration) and CuSO4 (10 μl of 50 mM stock, 1 mM final concentration). Samples were vortexed to mix and incubated for 1 hr at room temperature. The heavy and light proteomes were mixed 1:1 and the subsequent steps, including LC-MS/MS data analysis, were performed as previously described^[8a].
Coupling cell-based screens with chemical proteomics can facilitate the identification of target protein and binding sites that engage and are irreversibly modified by covalent ligands^[12]. In these assays, covalent ligands block SuTEx activity-based probe (ABP) labeling at protein sites, and the competition of probe labeling can be used to quantify potency and selectivity across the proteome^[10a]. To facilitate quantitative chemical proteomics, DM93 melanoma cells were cultured using stable isotopic labeling by amino acids in cell culture (SILAC)^[13]. Cells cultured in “light” media were treated with dimethyl sulfoxide (DMSO) vehicle while cells cultured in “heavy” media were treated with SuTEx ligand (25 μM, 2 hours, 37° C.). Next, cells were treated with HHS-475 probe (100 μM, 2 hours, 37° C.) followed by lysis and processing of proteomes for analysis. Probe-modified proteins from the soluble fraction were conjugated to a desthiobiotin-azide tag by copper-catalyzed azide-alkyne cycloaddition (CuAAC)^[14] followed by mixing of the light and heavy proteomes. The combined proteomes were digested with trypsin protease to produce probe-modified peptides, followed by enrichment and purification by avidin affinity chromatography. Probe-modified peptides were resolved, identified, and quantified by high-resolution liquid chromatography-tandem mass spectrometry (LC-MS/MS). Resultant data were analyzed as previously described^[8a, 10a]. Table 2, below, lists sites of modification targeted by sulfonyl-triazole compounds HHS-0101, HHS-0201, HHS-0301, HHS-0401, and HHS-0701. The format of the table is as follows: protein Uniprot accession number (see uniprot.org); tyrosine site (amino acid position) modified; treatment (sulfonyl-triazole compound identification number, followed by Y (where if multiple compounds modify the same site, the compounds are separated by vertical lines).

In the case of `O=C(NCC1CC1)c1ccc(S(=O)(=O)n2cncn2)cc1` [HHS-0201, 4-((1H-1,2,4-triazol-1-yl)sulfonyl)-N-(cyclopropylmethyl)benzamide], the “liganded tyrosine site 204” value is reported as “HHS0201.Y (tyrosine sites that showed >80% reductions (SR >5) in probe labeling in cells treated with compounds (liganded sites))” and the “liganded tyrosine site 214” value is reported as “HHS0201.Y (tyrosine sites that showed >80% reductions (SR >5) in probe labeling in cells treated with compounds (liganded sites))”.

`O=C(NCc1ccccc1)c1ccc(S(=O)(=O)n2cncn2)cc1` [HHS-0401, 4-((1H-1,2,4-triazol-1-yl)sulfonyl)-N-benzylbenzamide] was tested, and the “liganded tyrosine site 803” value was “HHS0401.Y (tyrosine sites that showed >80% reductions (SR >5) in probe labeling in cells treated with compounds (liganded sites))”.
